Measured values published in patent publication US9309222B2, “Phenyl linked quinolinyl modulators of RORγt” (Janssen Pharmaceutica NV, priority 2012, dated 2016).
“And” between values parts separate entries of the source, which are not always exact repeats. Identical values can stand only once. Counter-ions that a name gives are not always drawn.

What was measured:
[1] = biological target: T1, human RORγt ligand binding domain (RORγt LBD) (Homo sapiens, UniProt P51449); experiment: RORγt ThermoFluor assay (thermal shift, ligand binding affinity); details: estimated from concentration response of thermal shift
T1 construct: His-tag (N); TurboTEV protease cleavage site (ENLYFQG) (N); made in house; host or cells: E. coli (pHIS1, modified pET vector)
T1 sequence (P51449 with tags, fused parts or gaps): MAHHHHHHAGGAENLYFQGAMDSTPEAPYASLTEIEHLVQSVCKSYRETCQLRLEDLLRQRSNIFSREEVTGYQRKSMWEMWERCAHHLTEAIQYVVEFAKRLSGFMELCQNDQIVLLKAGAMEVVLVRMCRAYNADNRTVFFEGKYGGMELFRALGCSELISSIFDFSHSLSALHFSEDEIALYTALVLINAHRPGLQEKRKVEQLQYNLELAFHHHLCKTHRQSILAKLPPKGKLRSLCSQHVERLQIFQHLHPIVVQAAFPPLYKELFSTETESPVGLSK
Procedure: This approach is applicable to a wide variety of systems, and rigorous in theoretical interpretation through quantitation of equilibrium binding constants (KD).
The shift in the melting point described as a ΔTm is proportional to the concentration and affinity of the ligand.
RORγt ThermoFluor® Assay Construct
Protein and compound solutions are dispensed into black 384-well polypropylene PCR microplates (Abgene) and overlayed with silicone oil (1 μL Fluka, type DC 200) to prevent evaporation.
Fluorescence was measured by continuous illumination with UV light (Hamamatsu LC6) supplied via fiber optic and filtered through a band-pass filter (380-400 nm; >6 OD cutoff). Fluorescence emission of the entire 384-well plate was detected by measuring light intensity using a CCD camera (Sensys, Roper Scientific) filtered to detect 500±25 nm, resulting in simultaneous and independent readings of all 384 wells. Images were collected at each temperature, and the sum of the pixel intensity in a given area of the assay plate was recorded versus temperature. Reference wells contained RORγt without compounds, and the assay conditions were as follows: • 0.065 mg/mL RORγt • 60 μM 1,8-ANS • 100 mM Hepes, pH 7.0 • 10 mM NaCl • 2.5 mM GSH • 0.002% Tween-20
Project compounds were arranged in a pre-dosed mother plate (Greiner Bio-one) wherein compounds are serially diluted in 100% DMSO by 1:2 from a high concentration of 10 mM over 12 columns within a series (column 12 is a reference well containing DMSO, no compound).
The compounds were robotically dispensed directly into assay plates (1×=[…]) using a Hummingbird capillary liquid handling instrument (Digilab). Following compound dispense, protein and dye in buffer was added to achieve the final assay volume of 3 μL, followed by 1 μL of silicone oil.

human RORγt LBD = biological target: T2, human RORγt LBD (Homo sapiens, UniProt P51449); experiment: RORγt reporter assay (GAL4-RORγt LBD luciferase in HEK293T cells); type: cell-based; details: for IC50: HEK293T cells, 24 hours compound treatment; for inhibition at 6 µM: HEK-293T, read-out: RORγt reporter Assay, % inhibition @ 6 μM, HEK293T cells, 6 μM compound
T2 construct: expressed in transfected cells
T2 sequence (P51449 258-518): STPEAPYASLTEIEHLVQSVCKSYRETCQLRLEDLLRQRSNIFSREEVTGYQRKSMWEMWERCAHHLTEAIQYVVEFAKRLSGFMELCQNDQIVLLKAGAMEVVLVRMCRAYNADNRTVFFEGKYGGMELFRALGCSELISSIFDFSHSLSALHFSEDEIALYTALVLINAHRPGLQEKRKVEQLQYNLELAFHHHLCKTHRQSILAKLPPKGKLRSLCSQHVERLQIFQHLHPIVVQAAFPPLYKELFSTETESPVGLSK
Source text: A reporter assay was used to test functional activity of RORγt modulatory compounds on transcriptional activation driven by the RORγt LBD. Cells used in the assay were co-transfected with two constructs. The first construct, pBIND-RORγt LBD, contained the wild type human RORγt LBD fused to the DNA binding domain of the GAL4 protein. The second construct, pGL4.31 (Promega Cat no. C935A), contained multiple GAL4 responsive DNA elements upstream of firefly luciferase. […] The mutant construct was called pBIND-RORγt-AF2.
The pBIND vector contains the GAL4 DNA Binding Domain (GAL4 DBD) and the renilla luciferase gene under control of the SV40 promoter. Renilla luciferase expression serves as a control for transfection efficiency and cell viability.
The reporter assay was performed by transiently transfecting HEK293T cells with 5 ng of pBIND-RORγt LBD or pBIND-RORγt LBD-AF2 and 5 μg pGL4.31 (Promega Cat no. C935A) using Fugene 6 (Invitrogen Cat no. E2691) at a 1:6 ratio of DNA:Fugene 6 in a T-75 flask in which cells were at least 80% confluent. Twenty four hours after bulk transfection, cells were plated into 96-well plates at 50,000 cells/well in phenol-red free DMEM containing 5% Lipid Reduced FCS and Pen/Strep. Six hours after plating, cells were treated with compounds for 24 hours. Media was removed and cells were lysed with 50 μL 1× Glo Lysis Buffer (Promega). Dual Glo Luciferase Reagent (50 μL/well) was then added and firefly luciferase luminescence was read on an Envision after a ten minute incubation. Finally, Stop and Glo reagent (50 μL/well) was added and renilla luciferase luminescence was read on an Envision after a ten minute incubation. To calculate the effect of compounds on RORγt activity, the ratio of firefly to renilla luciferase was determined and plotted against compound concentration. Agonist compounds increase RORγt-driven luciferase expression, and antagonist or inverse agonist compounds decrease luciferase expression.

Structure (SMILES) | Kd [1] | IC50 (human RORγt LBD) | inhibition at 6 µM (human RORγt LBD)
CN(C)CCN(C)c1nc2ccc(C(O)(c3ccncc3)c3cncn3C)cc2c(Cl)c1-c1ccccc1 (stereo not drawn) [Example 64, (4-Chloro-2-{[2-(dimethylamino)ethyl](methyl)amino}-3-phenylquinolin-6-yl)(1-methyl-1H-imidazol-5-yl)pyridin-4-ylmethanol•TFA] | 500 nM | ~4000 nM | 87%
Cn1cncc1C(O)(c1ccncc1)c1ccc2nc(N3CCC(O)CC3)c(-c3ccccc3)c(Cl)c2c1 (stereo not drawn) [Example 72, 1-{4-Chloro-6-[hydroxy(1-methyl-1H-imidazol-5-yl)pyridin-4-ylmethyl]-3-phenylquinolin-2-yl}piperidin-4-ol•TFA] | 8500 nM | ~2000 nM | 83%
COC1CCN(c2nc3ccc(C(O)(c4ccncc4)c4cncn4C)cc3c(Cl)c2-c2ccccc2)CC1 (stereo not drawn) [Example 75, [4-Chloro-2-(4-methoxypiperidin-1-yl)-3-phenylquinolin-6-yl](1-methyl-1H-imidazol-5-yl)pyridin-4-ylmethanol•TFA] | 420 nM | ~2000 nM | 88%
Cn1cncc1C(O)(c1ccncc1)c1ccc2nc(N3CCN(c4ccccc4)CC3)c(-c3ccccc3)c(Cl)c2c1 (stereo not drawn) [Example 77, [4-Chloro-3-phenyl-2-(4-phenylpiperazin-1-yl)quinolin-6-yl](1-methyl-1H-imidazol-5-yl)pyridin-4-ylmethanol•TFA] | 1100 nM | ~4000 nM | 75%
CCCCc1c(-c2ccccc2)c(Cl)nc2ccc(C(O)(c3ccncc3)c3cncn3C)cc12 (stereo not drawn) [Example 78, (4-Butyl-2-chloro-3-phenylquinolin-6-yl)(1-methyl-1H-imidazol-5-yl)pyridin-4-ylmethanol•TFA] | 270 nM | ~2000 nM | 92%
COc1nc2ccc(C(O)(c3cccnc3)c3cccc(Cl)c3)cc2c(OC)c1-c1ccccc1 (stereo not drawn) [Example 79, (3-Chlorophenyl)(2,4-dimethoxy-3-phenylquinolin-6-yl)pyridin-3-ylmethanol•TFA] | 510 nM | 1200 nM | 73%
CCOc1nc2ccc(C(O)(c3cccnc3)c3cccc(Cl)c3)cc2c(Cl)c1-c1ccccc1 (stereo not drawn) [Example 81, (4-Chloro-2-ethoxy-3-phenylquinolin-6-yl)(3-chlorophenyl)pyridin-3-ylmethanol•TFA] | 170 nM | 320 nM | 93%
CCOc1nc2ccc(C(O)(c3ccncc3)c3cncn3C)cc2c(OCC)c1-c1ccccc1 (stereo not drawn) [Example 82, (2,4-Diethoxy-3-phenylquinolin-6-yl)(1-methyl-1H-imidazol-5-yl)pyridin-4-ylmethanol•TFA] | 560 nM | ~4000 nM | 71%

The remaining lines, values ahead:

Kd [1] | IC50 (human RORγt LBD) | inhibition at 6 µM (human RORγt LBD) | Structure (SMILES)
4200 nM | > 6000 nM | -3% | CCCCc1c(-c2ccccc2)cnc2ccc(C(O)(c3ccncc3)c3cncn3C)cc12 (stereo not drawn) [Example 83, (4-Butyl-3-phenylquinolin-6-yl)(1-methyl-1H-imidazol-5-yl)pyridin-4-ylmethanol•TFA]
130 nM | 640 nM | 92% | CC(C)Oc1c(-c2ccccc2)c(Cl)nc2ccc(C(O)(c3ccncc3)c3cncn3C)cc12 (stereo not drawn) [Example 85, [2-Chloro-4-(1-methylethoxy)-3-phenylquinolin-6-yl](1-methyl-1H-imidazol-5-yl)pyridin-4-ylmethanol•TFA]
220 nM | 200 nM | 97% | CC(C)(C)OC(=O)N1CCC(C(O)(c2cccnc2)c2ccc3nc(Cl)c(-c4ccccc4)c(Cl)c3c2)CC1 (stereo not drawn) [Example 91, tert-Butyl 4-[(2,4-dichloro-3-phenylquinolin-6-yl)(hydroxy)pyridin-3-ylmethyl]piperidine-1-carboxylate]
1200 nM | > 6000 nM | 49% | OC(c1cccnc1)(c1ccc2nc(Cl)c(-c3ccccc3)c(Cl)c2c1)C1CCCNC1 (stereo not drawn) [Example 93, (2,4-Dichloro-3-phenylquinolin-6-yl)(piperidin-3-yl)pyridin-3-ylmethanol•TFA]
2400 nM | > 6000 nM | 43% | CN1CCCC(C(O)(c2cccnc2)c2ccc3nc(Cl)c(-c4ccccc4)c(Cl)c3c2)C1 (stereo not drawn) [Example 94, (2,4-Dichloro-3-phenylquinolin-6-yl)(1-methylpiperidin-3-yl)pyridin-3-ylmethanol•TFA]
53 nM | 580 nM | 100% | CCc1nc2ccc(C(O)(c3ccncc3)c3cncn3C)cc2c(CC)c1-c1ccccc1 (stereo not drawn) [Example 97, (2,4-Diethyl-3-phenylquinolin-6-yl)(1-methyl-1H-imidazol-5-yl)pyridin-4-ylmethanol•TFA]
2500 nM | 640 nM | 94% | CCN(CC)c1c(-c2ccccc2)c(Cl)nc2ccc(C(O)(c3cccnc3)c3cccc(Cl)c3)cc12 (stereo not drawn) [Example 101, [2-Chloro-4-(diethylamino)-3-phenylquinolin-6-yl](3-chlorophenyl)pyridin-3-ylmethanol•TFA]
1400 nM | 2200 nM | 85% | CCN(CC)c1nc2ccc(C(O)(c3cccnc3)c3cccc(Cl)c3)cc2c(C)c1-c1ccccc1 (stereo not drawn) [Example 103, (3-Chlorophenyl)[2-(diethylamino)-4-methyl-3-phenylquinolin-6-yl]pyridin-3-ylmethanol•TFA]
1300 nM | 2300 nM | 75% | CCN(CC)c1nc2ccc(C(O)(c3cccnc3)c3cccc(Cl)c3)cc2c(OC)c1-c1ccccc1 (stereo not drawn) [Example 106, (3-Chlorophenyl)[2-(diethylamino)-4-methoxy-3-phenylquinolin-6-yl]pyridin-3-ylmethanol•TFA]
330 nM | 1100 nM | 90% | CN(C)c1nc2ccc(C(O)(c3ccncc3)c3cncn3C)cc2c(O)c1-c1ccccc1 (stereo not drawn) [Example 108, 2-(Dimethylamino)-6-[hydroxy(1-methyl-1H-imidazol-5-yl)pyridin-4-ylmethyl]-3-phenylquinolin-4-ol•TFA]
640 nM | 1000 nM and ~2000 nM | 77% | OC(c1ccc(C(F)(F)F)nc1)(c1cccc(Cl)c1)c1ccc2nc(Cl)c(-c3ccccc3)c(Cl)c2c1 (stereo not drawn) [Example 111, (3-Chlorophenyl)(2,4-dichloro-3-phenylquinolin-6-yl)(6-(trifluoromethyl)pyridin-3-yl)methanol]
